From publication PMC6434189, “Peperomin E and its orally bioavailable analog induce oxidative stress-mediated apoptosis of acute myeloid leukemia progenitor cells by targeting thioredoxin reductase” (Redox Biology, 2019)

Assays:
AML CD34+ cells = test: Release study of DMAPE in vitro, AML CD34+ cells (UFLC-MS/MS); assay type: in vitro ADME, human; conditions: 10 μM DMAPE, 24 h
Protocol: 1 × 10^5 cells (including sorted CD34^+ KG-1a cells and NBM cells) were seeded at 48-well plates (Corning, New York, USA) in the IMDM-based serum-free media for 1 h. The cells were then incubated with 10 μM DMAPE at 37 °C in the 5% CO2 incubator for 0, 12 or 24 h. The culture supernatant was collected by centrifugation at 3000 rpm for 10 min and evaporated to dryness at 30 °C using a CentriVap vacuum centrifugal concentrator. The resulting residue was reconstituted in 100 μL methanol, vortexed and centrifuged at 12000 rpm for 10 min. A 2 μL aliquot of the supernatant was injected for UFLC-MS/MS analysis (UFLC-MS/MS analysis method same as the pharmacokinetic study of DMAPE, see Additional method in Supplementary Materials).

[1] = target: T1, TrxR1 without Sec498 residue (TrxR1 nSec) (Homo sapiens, UniProt Q16881); test: In vitro TrxR1 activity assay (DTNB reduction), Sec-missing enzyme; assay type: biochemical; conditions: Sec-missing enzyme 0.1 μM
T1 construct: protein fragment, without selenocysteine residue; purchased Abcam ab168011
T1 sequence (Q16881 1-497 isoform Q16881-5): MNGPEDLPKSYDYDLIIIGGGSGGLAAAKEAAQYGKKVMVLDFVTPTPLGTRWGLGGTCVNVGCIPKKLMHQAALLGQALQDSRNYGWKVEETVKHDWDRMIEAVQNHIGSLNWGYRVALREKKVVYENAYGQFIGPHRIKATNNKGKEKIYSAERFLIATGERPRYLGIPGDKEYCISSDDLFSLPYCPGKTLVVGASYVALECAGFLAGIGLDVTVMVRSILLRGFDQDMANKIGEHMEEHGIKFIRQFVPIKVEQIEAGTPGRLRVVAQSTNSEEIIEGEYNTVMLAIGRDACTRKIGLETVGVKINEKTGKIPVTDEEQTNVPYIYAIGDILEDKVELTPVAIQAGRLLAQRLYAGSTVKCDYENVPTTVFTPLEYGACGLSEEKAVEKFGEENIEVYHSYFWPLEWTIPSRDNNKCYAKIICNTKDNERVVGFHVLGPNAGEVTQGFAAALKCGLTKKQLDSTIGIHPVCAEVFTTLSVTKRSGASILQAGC
Protocol: The in vitro TrxR1 activity assay was performed using the DTNB reduction assay. Briefly, 0.1 μM recombinant human TrxR1 or TrxR1 without Sec498 residue (TrxR1 nSec) protein was reduced with 100 μM NADPH in assay buffer (50 mM Tris-HCl, 1 mM EDTA, pH = 7.5) for 30 min at room temperature. The reduced proteins was then treated with the indicated concentrations of PepE (final concentrations of 0.25, 0.5, 1, 2, 4, 6 μM), respectively, and incubated for 1 h at 37 °C. A mixture of assay buffer solution (50 mM Tris-HCl, 1 mM EDTA, pH = 7.5) containing DTNB and NADPH was added then added, making the final concentrations of DTNB and NADPH 2 mM and 200 μM, respectively. The absorbance was monitored at 412 nm using the SpectraMax i3x microplate reader (Molecular Devices). The linear increase of absorbance during the initial 3 min was recorded for calculating the relative enzyme activity. The same amount of DMSO was added to the control experiments and the activity is expressed as the percentage of the control.

TrxR1 nSec498 = target: T2, TrxR1 nSec498 (Homo sapiens, UniProt Q16881); test: BLI binding assay, TrxR1 without Sec498; conditions: NADPH reduced TrxR1 nSec498 0.9 μM
T2 construct: protein fragment, without selenocysteine residue; purchased Abcam ab168011
T2 sequence (Q16881 11-497 isoform Q16881-5): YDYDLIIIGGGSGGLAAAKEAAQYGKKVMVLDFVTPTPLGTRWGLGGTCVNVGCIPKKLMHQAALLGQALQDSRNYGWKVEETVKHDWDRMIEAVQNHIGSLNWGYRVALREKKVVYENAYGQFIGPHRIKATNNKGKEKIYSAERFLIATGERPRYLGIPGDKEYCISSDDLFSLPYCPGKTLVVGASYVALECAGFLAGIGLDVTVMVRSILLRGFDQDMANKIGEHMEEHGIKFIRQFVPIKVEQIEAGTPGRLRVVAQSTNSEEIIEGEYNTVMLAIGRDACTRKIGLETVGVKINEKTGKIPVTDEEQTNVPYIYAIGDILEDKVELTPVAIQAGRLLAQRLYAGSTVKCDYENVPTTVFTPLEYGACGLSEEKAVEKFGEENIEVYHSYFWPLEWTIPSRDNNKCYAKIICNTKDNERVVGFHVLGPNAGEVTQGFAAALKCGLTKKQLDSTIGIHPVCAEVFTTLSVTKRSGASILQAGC
Protocol: The binding kinetics of PepE or PepA to purified recombinant proteins were determined using BLI on an Octet RED 96 system (ForteBio, Shanghai, China) following the manufacturer's protocol. All interaction analyses were performed at 25 °C in PBS with 0.2% DMSO. Purified recombinant proteins (0.9 μM, the TrxR1 full length and TrxR1 protein fragment were pre-reduced by 400 μM of NADPH before test) were pre-labeled with biotin using […] (Abcam) following the manufacturer's instruction. Loading of the Dip and Read Super Streptavidin (SSA) Biosensors (ForteBio) were conducted by exposing biotinylated proteins to biosensor tips for 2 h. The 96-well microplates used in the Octet were filled with 200 μL sample or buffer per well and agitated at 1000 rpm. The loaded biosensors were washed in buffer for 600 s and transferred to wells containing PepE at concentrations of 0.625, 1.25, 2.5, 5, and 10 μM or PepA at concentrations of 1.25, 2.5, 5, 10 and 20 μM, respectively, in the buffer. […] Reference measurements were conducted using the buffer instead of PepE (or PepA). A parallel set of SA unloaded biosensors was prepared to act as a control. […] Kinetic parameters (Kon and Kdis) and affinity (KD) were determined from a global fit to a 1:1 binding model of the data between proteins and PepE using Octet software (ForteBio).

DMAPE in culture with AML CD34+ cells (AML CD34+ cells)	IC50 [1] [µM]	Kd (TrxR1 nSec498) [µM]	SMILES
could not be detected	–	–	COc1cc(C(c2cc(OC)c3c(c2)OCO3)[C@@H]2COC(=O)[C@H]2CN(C)CCO)cc2c1OCO2 [DMAPE, (2S,3S)-6-Methyl (hydroxyethyl) amino-2,6-dihydropeperomin E]
–	> 8	11.9	C=C1C(=O)OC[C@H]1C(c1cc(OC)c2c(c1)OCO2)c1cc(OC)c2c(c1)OCO2 [PepE, Peperomin E]
